Reference: patent US20060135773A1, “Trisubstituted nitrogen modulators of tyrosine phosphatases” (priority 2004, published 2006)

Biological target: T1, PTP-1B (Homo sapiens, UniProt P18031)
T1 construct: PTP-1B (purified, 1 mg/mL) as a 1:250 dilution
T1 sequence (P18031 1-321 limits assumed): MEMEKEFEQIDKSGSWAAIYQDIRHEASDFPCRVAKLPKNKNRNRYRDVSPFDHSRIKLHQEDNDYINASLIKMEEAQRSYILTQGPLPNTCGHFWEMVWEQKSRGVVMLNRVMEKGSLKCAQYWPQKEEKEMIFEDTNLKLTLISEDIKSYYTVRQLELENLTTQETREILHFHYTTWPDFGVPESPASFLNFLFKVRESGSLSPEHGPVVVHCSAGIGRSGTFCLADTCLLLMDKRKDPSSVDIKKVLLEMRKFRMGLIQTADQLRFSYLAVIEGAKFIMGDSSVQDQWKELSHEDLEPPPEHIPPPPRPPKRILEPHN
Assay: pNPP tyrosine phosphatase inhibition assay, PTP-1B
Format: biochemical
Settings: pNPP assay, PTP-1B; read-out: Activity Class (IC50 ranges)
Description: The compounds provided herein are evaluated for biological activity as inhibitors of PTP-1B using, for example, a pNPP assay can be used to screen compounds for tyrosine phosphatase inhibitory activity as described in the Examples.
A 5× stock of pNPP (p-nitrophenol phosphate) substrate is prepared as 50 mM pNPP in assay buffer. Various tyrosine phosphatase solutions can be prepared as follows: • PTP-1B (purified, 1 mg/mL) as a 1:250 dilution (to a final concentration of 4:g/mL); • TC-PTP (NEB, 1000 units in 100:L) as a 1:50 dilution (to a final concentration of 2U/10:L (4:g/mL)); • CD45 (Calbiochem, 20:g, 400 units in 100:L) as a 1:50 dilution (to a final concentration of 0.8U/10:L (4:g/mL)); • LAR (NEB, 1000 units in 200:L) as a 1:75 dilution (to a final concentration of 0.7U/10:L (4:g/mL)); and • PTP-β (UBI, #14-350, 10,000 units, 40:g/571:L) as a 1:17.5 dilution (to a final concentration of 10U/10:L (4:g/mL));
The compound to be tested is prepared as 1:16.7 and 1:50 dilutions from stock in a total volume of […] DMSO to give final concentrations of 626 and 200:M. The reaction mixtures are prepared in a 96-well microtiter plate (on ice) as 55:L assay buffer, 5:L of the diluted compound (to a final concentration of 31.3 and 10:M), 20:L of the pNPP substrate solution (to a final concentration of 10 mM) and 20:L PTPase in assay buffer. The reactants are mixed well, the plate placed in a water bath at 30° C. and incubated for 10 minutes. The reaction is then terminated by adding 100:L of 2M K2CO3 per well, and the absorbance is measured at 405 nm by conventional means.
Unless otherwise indicated, this assay was used to determine activity for the selected compounds whose activity is provided in Table 1.

| IC50 | Molecule |
| --- | --- |
| > 25000 nM | COc1ccccc1S(=O)(=O)N(Cc1ccc(-c2cccc(C#N)c2)cc1)Cc1ccc(C(F)(F)P(=O)(OCOC(=O)C(C)(C)C)OCOC(=O)C(C)(C)C)c(Cl)c1 [Compound 226, 2,2-Dimethyl-propionic acid [(2-chloro-4-{[(3′-cyano-biphenyl-4-ylmethyl)-(2-methoxy-benzenesulfonyl)-amino]-methyl}-phenyl)-difluoro-methyl]-(2,2-dimethyl-propionyloxymethoxy)-phosphinoyloxymethyl ester] |
| < 99 nM | COc1ccccc1S(=O)(=O)N(Cc1ccc(-c2ccc(-c3nn[nH]n3)cc2)cc1)Cc1ccc(C(F)(F)P(=O)(O)O)c(Cl)c1 [Compound 159, {[2-Chloro-4-({(2-methoxy-benzenesulfonyl)-[4′-(2H-tetrazol-5-yl)-biphenyl-4-ylmethyl]-amino}-methyl)-phenyl]-difluoro-methyl}-phosphonic acid] |
| 250 to 499 nM | NC(=O)c1ccccc1S(=O)(=O)N(Cc1ccccc1)Cc1ccc(C(F)(F)P(=O)(O)O)c(Cl)c1 [Compound 192, [(4-{[Benzyl-(2-carbamoyl-benzenesulfonyl)-amino]-methyl}-2-chloro-phenyl)-difluoromethyl]-phosphonic acid] |
| < 99 nM | CCOc1cccc(-c2ccccc2CN(Cc2ccc(C(F)(F)P(=O)(O)O)c(Cl)c2)S(=O)(=O)c2ccccc2OC)c1 [Compound 217, [(2-Chloro-4-{[(3′-ethoxy-biphenyl-2-ylmethyl)-(2-methoxy-benzenesulfonyl)-amino]-methyl}-phenyl)-difluoro-methyl]-phosphonic acid] |
| 250 to 499 nM | COc1ccccc1S(=O)(=O)N(Cc1cccc(-c2cccc(S(C)(=O)=O)c2)c1)Cc1ccc(C(F)(F)P(=O)(O)O)c(Cl)c1 [Compound 142, [(2-Chloro-4-{[(3′-methanesulfonyl-biphenyl-3-ylmethyl)-(2-methoxy-benzenesulfonyl)-amino]-methyl}-phenyl)-difluoro-methyl]-phosphonic acid] |
| 250 to 499 nM | O=C(O)c1ccc(CN(Cc2ccc(C(F)(F)P(=O)(O)O)c(Cl)c2)S(=O)(=O)c2ccccc2)cc1 [Compound 235, 4-({Benzenesulfonyl-[3-chloro-4-(difluoro-phosphono-methyl)-benzyl]-amino}-methyl)-benzoic acid] |
| 100 to 249 nM | COc1ccccc1S(=O)(=O)N(Cc1ccc(-c2ccc(C#N)cc2)cc1)Cc1ccc(C(F)(F)P(=O)(O)O)c(Cl)c1 [Compound 155, [(2-Chloro-4-{[(4′-cyano-biphenyl-4-ylmethyl)-(2-methoxy-benzenesulfonyl)-amino]-methyl}-phenyl)-difluoro-methyl]-phosphonic acid] |
| 250 to 499 nM | COc1ccccc1S(=O)(=O)N(Cc1ccc(-c2ccc(S(C)(=O)=O)cc2)c(C)c1)Cc1ccc(C(F)(F)P(=O)(O)O)c(Cl)c1 [Compound 151, [(2-Chloro-4-{[(4′-methanesulfonyl-2-methyl-biphenyl-4-ylmethyl)-(2-methoxy-benzenesulfonyl)-amino]-methyl}-phenyl)-difluoro-methyl]-phosphonic acid] |
| 100 to 249 nM | COc1ccccc1S(=O)(=O)N(Cc1ccc(-c2cccc(C(N)=O)c2)cc1)Cc1ccc(C(F)(F)P(=O)(O)O)c(Cl)c1 [Compound 161, [(4-{[(3′-Carbamoyl-biphenyl-4-ylmethyl)-(2-methoxy-benzenesulfonyl)-amino]-methyl}-2-chloro-phenyl)-difluoro-methyl]-phosphonic acid] |

The remaining lines, values behind:

| Molecule | IC50 |
| --- | --- |
| O=P(O)(O)C(F)(F)c1ccc(CN(Cc2ccc(C(F)(F)P(=O)(O)O)c(Br)c2)S(=O)(=O)c2ccc3ccccc3c2)cc1 [Compound 42, [(2-Bromo-4-{[[4-(difluoro-phosphono-methyl)-benzyl]-(naphthalene-2-sulfonyl)-amino]-methyl}-phenyl)-difluoro-methyl]-phosphonic acid] | < 99 nM |
| COc1ccccc1S(=O)(=O)N(Cc1ccc(C#N)cc1)Cc1ccc(CC(C(=O)O)C(=O)O)cc1 [Compound 140, 2-(4-{[(4-Cyano-benzyl)-(2-methoxy-benzenesulfonyl)-amino]-methyl}-benzyl)-malonic acid] | > 25000 nM |
| COc1ccccc1S(=O)(=O)N(Cc1ccc(OCc2nnn[nH]2)cc1)Cc1ccc(OCc2nnn[nH]2)cc1 [Compound 138, 2-Methoxy-N,N-bis-[4-(1H-tetrazol-5-ylmethoxy)-benzyl]-benzenesulfonamide] | > 25000 nM |
| O=P(O)(O)C(F)(F)c1ccc(CN(Cc2ccc(C(F)(F)P(=O)(O)O)cc2)S(=O)(=O)c2cccc(-c3ccccc3)c2)cc1 [Compound 74, {[4-({(Biphenyl-3-sulfonyl)-[4-(difluoro-phosphono-methyl)-benzyl]-amino}-methyl)-phenyl]-difluoro-methyl}-phosphonic acid] | 250 to 499 nM |
| {[4-(difluorophosphonomethyl)-3-chlorophenyl]methyl}[(2-methoxyphenyl)sulfonyl]{[2-(4-methylphenyl)phenyl]methyl}amine [Compound 198] | < 99 nM |
| O=P(O)(O)C(F)(F)c1ccc(CN(Cc2ccc(C(F)(F)P(=O)(O)O)cc2)S(=O)(=O)c2cccc(Cl)c2)cc1 [Compound 76, {[4-({(3-Chloro-benzenesulfonyl)-[4-(difluoro-phosphono-methyl)-benzyl]-amino}-methyl)-phenyl]-difluoro-methyl}-phosphonic acid] | 250 to 499 nM |
| O=P(O)(O)C(F)(F)c1ccc(CN(Cc2ccc(C(F)(F)P(=O)(O)O)cc2)S(=O)(=O)c2ccc3ccccc3c2)cc1 [Compound 71, [(4-{[[4-(Difluoro-phosphono-methyl)-benzyl]-(naphthalene-2-sulfonyl)-amino]-methyl}-phenyl)-difluoro-methyl]-phosphonic acid] | 250 to 499 nM |
| {[4-(difluorophosphonomethyl)-3-chlorophenyl]methyl}[(2-methoxyphenyl)sulfonyl](2-piperidylmethyl)amine [Compound 213] | 2500 to 25000 nM |
| {[4-(difluorophosphonomethyl)-3-chlorophenyl]methyl}{[2-(4-methoxyphenyl)phenyl]methyl}[(2-methoxyphenyl)sulfonyl]amine [Compound 190] | < 99 nM |
| 3-[(4-{[(2-Methoxy-benzenesulfonyl)-naphthalen-1-ylmethyl-amino]-methyl}-phenyl)-oxalyl-amino]-butyric acid [Compound 225] | > 25000 nM |
| COc1ccccc1S(=O)(=O)N(Cc1ccc(N(CC(=O)O)C(=O)C(=O)O)cc1)Cc1ccc(S(C)(=O)=O)cc1 [Compound 136, N-Carboxymethyl-N-(4-{[(4-methanesulfonyl-benzyl)-(2-methoxy-benzenesulfonyl)-amino]-methyl}-phenyl)-oxalamic acid] | > 25000 nM |
| O=P(O)(O)C(F)(F)c1ccc(CN(Cc2ccc(C(F)(F)P(=O)(O)O)cc2)S(=O)(=O)c2cccc(Cl)c2Cl)cc1 [Compound 91, {[4-({(2,3-Dichloro-benzenesulfonyl)-[4-(difluoro-phosphono-methyl)-benzyl]-amino}-methyl)-phenyl]-difluoro-methyl}-phosphonic acid] | 2500 to 25000 nM |
| COc1ccccc1S(=O)(=O)N(Cc1ccc(S(C)(=O)=O)cc1)Cc1ccc(OCC(=O)O)c(C(=O)O)c1 [Compound 134, 2-Carboxymethoxy-5-{[(4-methanesulfonyl-benzyl)-(2-methoxy-benzenesulfonyl)-amino]-methyl}-benzoic acid] | > 25000 nM |
| O=P(O)(O)C(F)(F)c1ccc(CN(Cc2ccc(C(F)(F)P(=O)(O)O)cc2)S(=O)(=O)c2ccc(Cl)cc2)cc1 [Compound 73, {[4-({(4-Chloro-benzenesulfonyl)-[4-(difluoro-phosphono-methyl)-benzyl]-amino}-methyl)-phenyl]-difluoro-methyl}-phosphonic acid] | 250 to 499 nM |
| O=P(O)(O)C(F)(F)c1ccc(CN(Cc2ccc(C(F)(F)P(=O)(O)O)cc2)S(=O)(=O)c2ccccc2-c2ccccc2)cc1 [Compound 93, {[4-({(Biphenyl-2-sulfonyl)-[4-(difluoro-phosphono-methyl)-benzyl]-amino}-methyl)-phenyl]-difluoro-methyl}-phosphonic acid] | 250 to 499 nM |
| COc1ccccc1S(=O)(=O)N(Cc1ccc(C#N)cc1)Cc1ccc(C(F)(F)P(=O)(O)O)c(Br)c1 [Compound 105, [(2-Bromo-4-{[(4-cyano-benzyl)-(2-methoxybenzenesulfonyl)-amino]-methyl}-phenyl)-difluoro-methyl]-phosphonic acid] | 100 to 249 nM |
